Like-named read-outs stand apart in the source and are kept apart here.
Assays:
PHH spheroids = conditions: In vitro Assay; ref Vorrink 2018; cited from earlier work
[1] = cited from earlier work
human hepatocytes = conditions: cited from earlier work
[2] = cited from earlier work; remark: listed apart in the source
hLiMTs [3] = experiment: Combined HCI (HCS) and cellular ATP 3D assay in hLiMTs; conditions: Homo sapiens
HepaRG spheroids = experiment: Combined HCI (HCS) and cellular ATP 3D assay in HepaRG spheroids; conditions: Homo sapiens, HepaRG
rBsep = conditions: cited from earlier work
[4] = tested on: THLE or HepG2 cells, isolated mitochondria, BSEP; conditions: In vitro Assay; ref Aleo 2019; cited from earlier work
hLiMTs [5] = conditions: In vitro Assay; ref Proctor 2017; cited from earlier work
PHH = conditions: In vitro Assay; ref Proctor 2017; cited from earlier work
HepG2 cells [6] = conditions: In vitro Assay; ref Persson 2013; cited from earlier work
HepG2 cells [7] = conditions: In vitro Assay; ref O'Brien 2006; cited from earlier work
[8] = In vitro Assay, ref Dawson 2012

SMILES: CCCSc1ccc2nc(NC(=O)OC)[nH]c2c1 [albendazole]
- hLiMTs ATP <20 x Cmax (PHH spheroids): -VE
- In vivo DILI ([1]; ref Vorrink 2018): +VE
- In vivo DILI ([1]; ref Xu 2008): +VE
- Structural based (HCI) (human hepatocytes): +VE
- DILI +VE (5-8), DILI -VE (-4) ([2]; ref Chen 2016): +VE
- DILI severity category ([2]; ref Chen 2016): vMost-DILI-Concern

SMILES: N=C(N)NC(=O)c1nc(Cl)c(N)nc1N [amiloride]
- hLiMTs ATP <20 x Cmax (PHH spheroids): -VE
- In vivo DILI ([1]; in vivo): -VE
- DILI +VE (5-8), DILI -VE (-4) ([2]; in vivo): +VE
- DILI severity category ([2]; in vivo): vLess-DILI-Concern

SMILES: CCC1(c2ccc(N)cc2)CCC(=O)NC1=O (stereo not shown) [aminoglutethimide]
- hLiMTs ATP <20 x Cmax (PHH spheroids): -VE
- In vivo DILI ([1]; ref Vorrink 2018): -VE
- In vivo DILI ([1]; ref Xu 2008): -VE
- Structural based (HCI) (human hepatocytes; In vitro Assay, ref Xu 2008): -VE

SMILES: Clc1ccc2c(c1)C(N1CCNCC1)=Nc1ccccc1O2 [amoxapine]
- hLiMTs ATP <20 x Cmax (PHH spheroids): -VE
- In vivo DILI ([1]; ref Vorrink 2018): -VE
- In vivo DILI ([1]; ref Xu 2008): -VE
- Structural based (HCI) (human hepatocytes; In vitro Assay, ref Xu 2008): -VE
- DILI +VE (5-8), DILI -VE (-4) ([2]; ref Chen 2016): -VE
- DILI severity category ([2]; ref Chen 2016): Ambiguous DILI-concern

SMILES: Nc1cc(-c2ccncc2)c[nH]c1=O [amrinone]
- hLiMTs ATP <20 x Cmax (PHH spheroids): -VE
- In vivo DILI ([1]; ref Vorrink 2018): +VE
- In vivo DILI ([1]; ref Xu 2008): +VE
- Structural based (HCI) (human hepatocytes; In vitro Assay, ref Xu 2008): -VE
- DILI +VE (5-8), DILI -VE (-4) ([2]; ref Chen 2016): -VE
- DILI severity category ([2]; ref Chen 2016): Ambiguous DILI-concern

SMILES: CC(C)COCC(CN(Cc1ccccc1)c1ccccc1)N1CCCC1 (stereo not shown) [bepridil]
- hLiMTs ATP <20 x Cmax (PHH spheroids): +VE (IC20 < 20 × Cmax.tot cut-off)
- In vivo DILI ([1]; ref Vorrink 2018): +VE
- In vivo DILI ([1]; ref Xu 2008): +VE
- Structural based (HCI) (human hepatocytes; In vitro Assay, ref Xu 2008): +VE

SMILES: CN(C)CCC(c1ccc(Br)cc1)c1ccccn1 (stereo not shown) [brompheniramine]
- hLiMTs ATP <20 x Cmax (PHH spheroids): -VE
- Structural based (HCI) (human hepatocytes; In vitro Assay, ref Xu 2008): -VE

SMILES: C[C@H](CCC(=O)O)[C@H]1CC[C@H]2[C@@H]3[C@H](O)C[C@@H]4C[C@H](O)CC[C@]4(C)[C@H]3CC[C@]12C [chenodiol]
- hLiMTs ATP <20 x Cmax (PHH spheroids): +VE (IC20 < 20 × Cmax.tot cut-off)
- In vivo DILI ([1]; ref Vorrink 2018): +VE
- In vivo DILI ([1]; ref Xu 2008): +VE
- Structural based (HCI) (human hepatocytes; In vitro Assay, ref Xu 2008): +VE
- DILI +VE (5-8), DILI -VE (-4) ([2]; ref Chen 2016): -VE
- DILI severity category ([2]; ref Chen 2016): Ambiguous DILI-concern

SMILES: Cc1cc(C2CCCCC2)n(O)c(=O)c1 [ciclopirox]
- hLiMTs ATP <20 x Cmax (PHH spheroids): -VE
- In vivo DILI ([1]; ref Vorrink 2018): -VE
- In vivo DILI ([1]; ref Xu 2008): -VE
- Structural based (HCI) (human hepatocytes; In vitro Assay, ref Xu 2008): -VE

SMILES: CCN(CC)C(=O)N1CCN(C)CC1 [diethylcarbamazine]
- hLiMTs ATP <20 x Cmax (PHH spheroids): -VE
- Structural based (HCI) (human hepatocytes; In vitro Assay, ref Xu 2008): -VE

SMILES: COc1ccc([C@@H]2Sc3ccccc3N(CCN(C)C)C(=O)[C@@H]2OC(C)=O)cc1 [diltiazem]
- hLiMTs ATP <20 x Cmax (PHH spheroids): -VE
- Structural based (HCI) (human hepatocytes; In vitro Assay, ref Xu 2008): -VE

SMILES: CC(CCc1ccc(O)cc1)NCCc1ccc(O)c(O)c1 (stereo not shown) [dobutamine]
- hLiMTs ATP <20 x Cmax (PHH spheroids): -VE
- In vivo DILI ([1]; ref Vorrink 2018): -VE
- In vivo DILI ([1]; ref Xu 2008): -VE
- Structural based (HCI) (human hepatocytes; In vitro Assay, ref Xu 2008): -VE
- DILI +VE (5-8), DILI -VE (-4) ([2]; ref Chen 2016): -VE
- DILI severity category ([2]; ref Chen 2016): vNo-DILI-Concern

SMILES: COc1cc2c(cc1OC)C(=O)C(CC1CCN(Cc3ccccc3)CC1)C2 (stereo not shown) [donepezil]
- AC50 (hLiMTs [3]; read-out: ATP endpoint AC50): 9.76 µM
- minimal effective concentration (hLiMTs [3]; read-out: ATP endpoint MEC): 3.17 µM
- AC50 (hLiMTs [3]; read-out: HCS endpoint AC50): 7.19 µM
- minimal effective concentration (hLiMTs [3]; read-out: HCS endpoint MEC): 0.487 µM
- minimal effective concentration (HepaRG spheroids; read-out: ATP endpoint MEC): 6.49 µM
- minimal effective concentration (HepaRG spheroids; read-out: HCS endpoint MEC): 9.43 µM
- Inhibition of rBsep cutoff<3 (rBsep): -VE

SMILES: COC1=CC(=O)C[C@@H](C)[C@]12Oc1c(Cl)c(OC)cc(OC)c1C2=O [griseofulvin]
- hLiMTs ATP <20 x Cmax (PHH spheroids): -VE
- Partition Hybrid HRM Score [4]: +VE
- Ro2 Hybrid HRM Score [4]: +VE
- Structural based (HCI) (human hepatocytes; In vitro Assay, ref Xu 2008): -VE

SMILES: C[C@]12CCC(=O)C=C1CC[C@@H]1[C@@H]2[C@@H](O)C[C@@]2(C)[C@H]1CC[C@]2(O)C(=O)CO [hydrocortisone]
- hLiMTs ATP <20 x Cmax (PHH spheroids): -VE
- In vivo DILI ([1]; in vivo): -VE
- Structural based (HCI) (human hepatocytes; In vitro Assay, ref Xu 2008): -VE
- DILI +VE (5-8), DILI -VE (-4) ([2]; in vivo): -VE
- DILI severity category ([2]; in vivo): vNo-DILI-Concern

SMILES: N[C@@H](Cc1ccc(O)c(O)c1)C(=O)O [levodopa]
- hLiMTs ATP <20 x Cmax (PHH spheroids): -VE
- Structural based (HCI) (human hepatocytes; In vitro Assay, ref Xu 2008): -VE

SMILES: NCCCC[C@H](N[C@@H](CCc1ccccc1)C(=O)O)C(=O)N1CCC[C@H]1C(=O)O [lisinopril]
- hLiMTs ATP <20 x Cmax (PHH spheroids): +VE (IC20 < 20 × Cmax.tot cut-off)
- Structural based (HCI) (human hepatocytes; In vitro Assay, ref Xu 2008): -VE

SMILES: Clc1ccc(COC(Cn2ccnc2)c2ccc(Cl)cc2Cl)c(Cl)c1 (stereo not shown) [miconazole]
- hLiMTs ATP <20 x Cmax (PHH spheroids): -VE
- Structural based (HCI) (human hepatocytes; In vitro Assay, ref Xu 2008): -VE

SMILES: CCc1c(C)[nH]c2c1C(=O)C(CN1CCOCC1)CC2 (stereo not shown) [molindone]
- hLiMTs ATP <20 x Cmax (PHH spheroids): -VE
- In vivo DILI ([1]; ref Vorrink 2018): +VE
- In vivo DILI ([1]; ref Xu 2008): +VE
- Structural based (HCI) (human hepatocytes; In vitro Assay, ref Xu 2008): -VE

SMILES: COc1ccc2cc([C@H](C)C(=O)O)ccc2c1 [naproxen]
- hLiMTs ATP <100uM (hLiMTs [5]): -VE
- PHH ATP <100uM (PHH): -VE
- Cluser analysis (HepG2 cells [6]): -VE
- Structural based (HCI) (HepG2 cells [6]): -VE
- Structural based (HCI) (HepG2 cells [7]): -VE

SMILES: COC(=O)C1=C(C)NC(C)=C(C(=O)OC)C1c1ccccc1[N+](=O)[O-] [nifedipine]
- Inhibition of rBsep cutoff<3 (rBsep): +VE

SMILES: COCCOC(=O)C1=C(C)NC(C)=C(C(=O)OC(C)C)C1c1cccc([N+](=O)[O-])c1 (stereo not shown) [nimodipine]
- hLiMTs ATP <20 x Cmax (PHH spheroids): +VE (IC20 < 20 × Cmax.tot cut-off)
- Structural based (HCI) (human hepatocytes; In vitro Assay, ref Xu 2008): +VE

SMILES: COC(=O)C1=C(C)NC(C)=C(C(=O)OCC(C)C)C1c1ccccc1[N+](=O)[O-] (stereo not shown) [nisoldipine]
- hLiMTs ATP <20 x Cmax (PHH spheroids): -VE
- In vivo DILI ([1]; […]): -VE
- In vivo DILI ([1]; ref Vorrink 2018): -VE
- In vivo DILI ([1]; ref Xu 2008): -VE
- Structural based (HCI) (human hepatocytes; In vitro Assay, ref Xu 2008): -VE
- DILI +VE (5-8), DILI -VE (-4) ([2]; ref Chen 2016): -VE
- DILI severity category ([2]; ref Chen 2016): Ambiguous DILI-concern

SMILES: NNCCc1ccccc1 [phenelzine]
- hLiMTs ATP <20 x Cmax (PHH spheroids): -VE
- In vivo DILI ([1]; […]): +VE
- In vivo DILI ([1]; ref Vorrink 2018): -VE
- In vivo DILI ([1]; ref Xu 2008): -VE
- Structural based (HCI) (human hepatocytes; In vitro Assay, ref Xu 2008): -VE
- DILI +VE (5-8), DILI -VE (-4) ([2]; ref Chen 2016): +VE
- DILI severity category ([2]; ref Chen 2016): vLess-DILI-Concern

SMILES: CC[C@@H]1C(=O)OC[C@@H]1Cc1cncn1C [pilocarpine]
- hLiMTs ATP <20 x Cmax (PHH spheroids): -VE
- In vivo DILI ([1]; ref Vorrink 2018): -VE
- In vivo DILI ([1]; ref Xu 2008): -VE
- Structural based (HCI) (human hepatocytes; In vitro Assay, ref Xu 2008): -VE
- DILI +VE (5-8), DILI -VE (-4) ([2]; ref Chen 2016): -VE
- DILI severity category ([2]; ref Chen 2016): Ambiguous DILI-concern

SMILES: CC(C)NCC(O)COc1cccc2[nH]ccc12 (stereo not shown) [pindolol]
- hLiMTs ATP <20 x Cmax (PHH spheroids): -VE
- In vivo DILI ([1]; ref Vorrink 2018): -VE
- In vivo DILI ([1]; ref Xu 2008): -VE
- DILI +VE (5-8), DILI -VE (-4) ([2]; ref Chen 2016): -VE
- DILI severity category ([2]; ref Chen 2016): vNo-DILI-Concern

SMILES: O=C(C1CCCCC1)N1CC(=O)N2CCc3ccccc3C2C1 (stereo not shown) [praziquantel]
- Inhibition of rBsep cutoff<1& cmax u>.2 (rBsep; [8]): -VE
- Inhibition of rBsep cutoff<3 (rBsep; [8]): +VE
- Structural based (HCI) (HepG2 cells [7]): +VE

SMILES: CCOC(=O)[C@H](CCc1ccccc1)N[C@@H](C)C(=O)N1Cc2ccccc2C[C@H]1C(=O)O [quinapril]
- hLiMTs ATP <20 x Cmax (PHH spheroids): -VE
- In vivo DILI ([1]; ref Vorrink 2018): +VE
- In vivo DILI ([1]; ref Xu 2008): +VE
- Structural based (HCI) (human hepatocytes; In vitro Assay, ref Xu 2008): -VE
- DILI +VE (5-8), DILI -VE (-4) ([2]; ref Chen 2016): +VE
- DILI severity category ([2]; ref Chen 2016): vLess-DILI-Concern

SMILES: O=C(c1ccc(OCCN2CCCCC2)cc1)c1c(-c2ccc(O)cc2)sc2cc(O)ccc12 [raloxifene]
- hLiMTs ATP <20 x Cmax (PHH spheroids): -VE
- In vivo DILI ([1]; […]): -VE
- In vivo DILI ([1]; ref Vorrink 2018): -VE
- In vivo DILI ([1]; ref Xu 2008): -VE
- Structural based (HCI) (human hepatocytes; In vitro Assay, ref Xu 2008): -VE
- DILI +VE (5-8), DILI -VE (-4) ([2]; ref Chen 2016): -VE
- DILI severity category ([2]; ref Chen 2016): vNo-DILI-Concern

SMILES: O=C(O)c1cc(/N=N/c2ccc(S(=O)(=O)Nc3ccccn3)cc2)ccc1O [sulfasalazine]
- hLiMTs ATP <20 x Cmax (PHH spheroids): +VE (IC20 < 20 × Cmax.tot cut-off)
- Structural based (HCI) (human hepatocytes; In vitro Assay, ref Xu 2008): +VE

SMILES: CC(C)(C)c1ccc(C(O)CCCN2CCC(C(O)(c3ccccc3)c3ccccc3)CC2)cc1 (stereo not shown) [terfenadine]
- hLiMTs ATP <20 x Cmax (PHH spheroids): -VE
